# Data taken from US20090023801A1, “INHIBITORS OF BETA AMYLOID PRODUCTION” (Wyeth, priority 2007, published 2009).
# Where two headings read alike, the source gives them in different places.
# What was measured:
# Type in all cases: cell-based
# [1] = test system: Notch; test: Stable transfection Notch reporter assay (HES1-SEAP, P8H6 CHO-K1 cells)
# Text: A concern with compounds that lower beta amyloid synthesis by targeting the γ-secretase enzyme is that this enzyme also is involved in the cleavage of other substrates besides APP especially the Notch substrate. […] Thus, a selectivity of APP cleavage over Notch cleavage is desired in order to avoid G.I. side effects. The activity of compounds in cleaving Notch can be measured in a whole cell functional Notch assay. This is an assay to determine the effects of compounds on the S3 (γ-secretase like) processing of Notch. […] SEAP transactivation is then detected by luminescent assay. The assay consists of the following protocol:
# • (i) Materials: The P8H6 inducible stable cell line was derived from T-REX™ CHO-K1, stably expressing Tet repressor, Notch (pZX1) and HES1-SEAP (pZX2) reporter constructs. A Wallac 1450 Victor™ Luminescence Counter was used to measure luminescent signal. All other materials and reagents were of highest quality available and were all from commercial sources.
# (ii) Construct Description: • pZX1: Mouse Notch1 with deleted extracellular domain cloned at Hind III/Xho I sites of pcDNA5/TO vector: Ampicillin Resistance for bacteria, hygromycin resistance for cells. • pZX2: Mouse HES1 promoter together with reporter gene SEAP cloned at Not I/Apa I sites of pcDNA3.1 with deletion of CMV promoter.
# (iii) Procedure: • 1. P8H6 cells were grown in Ham's F12 complete growth media containing 10% FBS (reduced tetracycline), 2 mM of L-glutamine, 1 mg/mL of hygromycin, 1 mg/mL of the GENETICIN® antibiotic, 10 μg/mL of Blasticidin and 1% Penicillin-Streptomycin were supplemented with doxycline with final induction concentration of 0.2 μg/mL. The cells were seeded in 96-well tissue culture plate at 8000/well. • 2. Test compounds in 0.2% DMSO/25 mM HEPES buffer were diluted at final working concentration of 20 μM, 6.7 μM, 2.2 μM, 741 nM, 247 nM, 82 nM, 27 nM, 9 nM and 3 nM. Diluted compounds then were added to P8H6 cells in 96-well tissue culture plates. For vehicle samples, the same volume of 0.2% DMSO/25 mM HEPES buffer was added. • 3. Cells were incubated at 37° C., 5% CO2 for 48 hours. • 4. SEAP levels in the conditioned media were assessed using the Clontech GREATESCAPE™ SEAP Chemiluminescence detection kit according to the manufacturer's instruction. Briefly, 15 μL of conditioned media were mixed with 45 μL of the dilution buffer and incubated at 65° C. for 45 minutes. After cooling, assay buffer was added and the sample was incubated with the CSPD® substrate. • 5. Luminescence was measured in a Wallac 1450 VICTOR™ luminescence counter.
# EC50 was the compound concentration that was estimated to provide a 50% reduction of maximum response in Notch induced SEAP levels. An EC50 from a given assay may only be used for averaging if it has met the following criteria: • 1. There is a lower dose in the assay which gives a % Notch Activity>60% (bracketing lower dose). • 2. There is a higher dose in the assay which gives a % Notch Activity<30% (bracketing higher dose), and the maximum inhibition is reached (e.g., a given compound might achieve 80% inhibition (% Notch activity is about 20%) over several doses, and therefore 20% would be considered the maximum inhibition.
# Data were analyzed in Microsoft EXCEL® format. EC50 was calculated by LSW using sigmoidal inhibition from B0 to nsb model (model 59). Each assay plate contained a dose response curve for the reference compound 5-chloro-N-[(1S,2R)-2-ethyl-4,4,4-trifluoro-1-(hydroxymethyl)butyl]thiophene-2-sulfonamide. This compound is discussed in International Patent Publication No. WO 2004/092155. The following data is not shown in that publication.
# (§1) The beta amyloid inhibitory activity of compounds of formula (I) was determined using the MSD ECL assay. Inhibition of Notch processing was measured using the stable transfection reporter assay See, Table 1 below.
# [2] = test system: Aβ42; test: Aβ-lowering MSD electrochemiluminescent assay of conditioned media from CHO cells expressing human APP (Aβ42)
# Procedure: (§2) The activity of compounds in lowering the generation of Aβ40 and Aβ42, the most abundant forms of beta amyloid, from APP (amyloid precursor protein) was measured in an electrochemiluminescent (ECL) assay of conditioned media from chinese hamster ovary (CHO) cells stably expressing the human amyloid precursor protein (APP) reporter construct, hAPP-REPNL751 (Sughir, R. et al.; J. Biolog. Chem (1992) 267: 25602-25608). Aβ peptides were secreted at high levels into cell culture media by cells carrying the human APP transgene; compounds were tested for their capacity to modulate this production. The Aβ peptide in the conditioned medium was quantitated by a sandwich immunoassay with the MSD ECL detection system. Cell metabolism was measured using a 3-(4,5-dimethylthiazol-2-yl)-5-(3-carboxymethoxypheny)-2-(4-sulfophenyl)-2H-tetrazolium, inner salt (MTS) salt kit (which measures the mitochondrial activity of cells by the bioreduction of Owen's reagent). This assay consists of the following protocol:
# (§3) 1. hAPP-REPNL751CHO cells were seeded into 96 well plates and incubated until about 60-70% confluence.
# (§4) 2. Medium was removed, cells were washed, and fresh serum-free medium (Ultraculture) was put on cells.
# (§5) 3. Compounds were diluted and then added to the cell medium.
# (§6) 4. Cells were incubated, with compounds, for indicated times.
# (§7) 5. Streptavidin coated Meso Scale Discover (MSD) plates (MSD standard MULTI-ARRAY® 96 plate, cat.# P11SA-1) were washed […] with TTBS (Tris-buffered saline, the TWEEN® 20 reagent).
# (§8) 6. 20 μL conditioned medium were removed from the cells and added to the TTBS prewashed MSD plates.
# (§9) 7. Standard curve dilutions of synthetic Aβ40 and Aβ42 were prepared and added to the MSD plates.
# (§10) 8. A reagent mix was prepared in 1% MSD Blocker A (appropriate concentration of biotinylated 6E10 antibody, detection antibodies to Aβ40, Aβ42, and MSD ruthinylated tag antibody).
# (§11) 9. 20 μL reagent mix was distributed to sample plate.
# (§12) 10. Plates were incubated with shaking overnight at 4° C.
# (§13) 11. Plates were washed 3× with TTBS.
# (§14) 12. 150 μL read buffer was added per well (MSD® Read Buffer T, cat#R92TC-2, made 1× with distilled water).
# (§15) 13. Plates were read in a MSD® plate reader within 2 hours.
# (§16) Assays were accepted or rejected based upon specific performance criteria, including regression coefficient of standard curve, adequate signal to noise ratio, sample signals lying within the range of the standard curve, etc.: the specific parameters were established for each tissue type prior to performing an assay, and were included in the full analytical procedure.
# (§17) Plate data from both assays (MTS and MSD® ELISA) were transferred into a Microsoft EXCEL® spreadsheet to determine the toxicity, and inhibition caused by the compounds. Standard curves of Aβ were generated using LSW™ toolbar Hill slope model 42, with 1/y weighting (general sigmoidal curve with Hill slope, a to d; y=(a−d)/(1+(x/c)̂b)+d). Inhibition data were expressed as a percent of the average of the Aβ values in the vehicle treated wells (all values are background subtracted), using LSW™ toolbar Hill Slope model 68 (ligand-receptor binding/sigmoidal, with Hill slope and Bmax to 0; y=Bmax*(1−(x̂n/(K̂n+x̂n))), after raw values were translated/transformed into absolute Aβ values utilizing the standard curve generated as described above (e.g. back calculate absolute Aβ values from the raw values utilizing standard curve). Onboard controls to verify assay performance were checked to assure that amyloid is within linear detection range of the assay, that cells were expressing correctly, and that the MSD itself was performing according to quality control (QC) standards.
# (§18) % Inhibition>50% may be considered a positive response or an interesting result in this assay; EC50 determination were determined.
# as §1
# [3] = test system: Aβ40; test: Aβ-lowering MSD electrochemiluminescent assay of conditioned media from CHO cells expressing human APP (Aβ40)
# Procedure: as §2, §3, §4, §5, §6, §7, §8, §9, §10, §11, §12, §13, §14, §15, §16, §17, §18, §1
# [4] = CHO-K1, stable transfection Notch reporter assay, 48 hours, read-out: Notch EC50 for inhibition of Notch
# [5] = MSD electrochemiluminescent assay, hAPP-REPNL751 CHO cells, read-out: Aβ42 EC50 for inhibition of Aβ42
# [6] = MSD electrochemiluminescent assay, hAPP-REPNL751 CHO cells, read-out: Aβ40 EC50 for inhibition of Aβ40
# [7] = CHO-K1, Notch assay reference compounds, read-out: EC50 (Notch assay)
# [8] = CHO, beta amyloid assay reference compounds, read-out: EC50 Aβ42
# [9] = CHO, beta amyloid assay reference compounds, read-out: EC50 Aβ40
"EC50 [1, 4] [nM]","EC50 [2, 5] [nM]","EC50 [3, 6] [nM]","EC50 [1, 7] [nM]","EC50 [2, 8] [nM]","EC50 [3, 9] [nM]","EC50 ([1]; stable transfection Notch reporter assay, 48 hours, read-out: Notch EC50 for inhibition of Notch) [nM]",Compound
> 20000,178,187,–,–,–,–,"O=S(=O)(N[C@H](CO)[C@@H](c1ccc(F)cc1)C(F)(F)F)c1ccc(Cl)s1 (relative stereo) [Example 9, 5-Chloro-N-[(1S*,2R*)-3,3,3-trifluoro-2-(4-fluorophenyl)-1-(hydroxymethyl)propyl]thiophene-2-sulfonamide]"
–,–,–,68,79,109,–,"CC(C)[C@H](O)C(=O)N[C@@H](C)C(=O)N[C@@H]1C(=O)N(C)CCc2ccccc21 [(2S)-2-hydroxy-3-methyl-N-((1S)-1-methyl-2-{[(1S)-3-methyl-2-oxo-2,3,4,5-tetrahydro-1H-3-benzazepin-1-yl]amino}-2-oxoethyl)butanamide, reference compound]"
> 20000,2280,2360,–,–,–,–,"O=S(=O)(N[C@H](CO)[C@H](c1ccc(Cl)cc1)C(F)(F)F)c1ccc(Cl)s1 (relative stereo) [Example 14, 5-Chloro-N-[(1S*,2S*)-2-(4-chlorophenyl)-3,3,3-trifluoro-1-(hydroxymethyl)propyl]thiophene-2-sulfonamide]"
–,8750,7300,–,–,–,> 20000,"O=S(=O)(N[C@@H](CO)[C@@H](c1cc(F)cc(F)c1)C(F)(F)F)c1ccc(Cl)s1.O=S(=O)(N[C@H](CO)[C@H](c1cc(F)cc(F)c1)C(F)(F)F)c1ccc(Cl)s1 (relative stereo) [Example 7, 5-Chloro-N-[(1S*,2S*)-2-(3,5-difluorophenyl)-3,3,3-trifluoro-1-(hydroxymethyl)propyl]thiophene-2-sulfonamide and 5-chloro-N-[(1R*,2R*)-2-(3,5-difluorophenyl)-3,3,3-trifluoro-1-(hydroxymethyl)propyl]thiophene-2-sulfonamide]"
–,–,–,225,5,6,–,"CC[C@H](CC(F)(F)F)[C@@H](CO)NS(=O)(=O)c1ccc(Cl)s1 [5-chloro-N-[(1S,2R)-2-ethyl-4,4,4-trifluoro-1-(hydroxymethyl)butyl]thiophene-2-sulfonamide, reference compound]"
7600,396,316,–,–,–,–,"O=S(=O)(N[C@H](CO)[C@@H](c1ccc(Cl)cc1)C(F)(F)F)c1ccc(Cl)s1 (relative stereo) [Example 13, 5-Chloro-N-[(1S*,2R*)-2-(4-chlorophenyl)-3,3,3-trifluoro-1-(hydroxymethyl)propyl]thiophene-2-sulfonamide]"
> 20000,3380,4060,–,–,–,–,"O=S(=O)(N[C@H](CO)[C@H](c1cccc(F)c1)C(F)(F)F)c1ccc(Cl)s1 (relative stereo) [Example 11, 5-Chloro-N-[(1S*,2S*)-3,3,3-trifluoro-2-(3-fluorophenyl)-1-(hydroxymethyl)propyl]thiophene-2-sulfonamide]"
2780,80,83,–,–,–,–,"O=S(=O)(N[C@H](CO)[C@@H](c1cc(F)cc(F)c1)C(F)(F)F)c1ccc(Cl)s1 (relative stereo) [Example 8, 5-Chloro-N-[(1S*,2R*)-2-(3,5-difluorophenyl)-3,3,3-trifluoro-1-(hydroxymethyl)propyl]thiophene-2-sulfonamide]"
> 20000,760,710,–,–,–,–,"O=S(=O)(NC(CO)C(c1ccccc1)C(F)(F)F)c1ccc(Cl)s1 (stereo not shown) [Example 1, 5-Chloro-N-[3,3,3-trifluoro-1-(hydroxymethyl)-2-phenylpropyl]thiophene-2-sulfonamide]"
> 20000,7200,7520,–,–,–,–,"O=S(=O)(N[C@H](CO)[C@H](c1ccccc1)C(F)(F)F)c1ccc(Cl)s1 (stereo in doubt) [Example 5, 5-Chloro-N-[(1S*,2S*)-3,3,3-trifluoro-1-hydroxymethyl-2-phenylpropyl]thiophene-2-sulfonamide]"
–,> 15000,> 15000,–,–,–,–,"O=S(=O)(N[C@@H](CO)[C@H](c1ccccc1)C(F)(F)F)c1ccc(Cl)s1 [Example 3, 5-Chloro-N-[(1R,2S)-3,3,3-trifluoro-1-(hydroxymethyl)-2-phenylpropyl]thiophene-2-sulfonamide]"
3750,197,238,–,–,–,–,"O=S(=O)(N[C@H](CO)[C@@H](c1ccccc1)C(F)(F)F)c1ccc(Cl)s1 [Example 4, 5-Chloro-N-[(1S,2R)-3,3,3-trifluoro-1-(hydroxymethyl)-2-phenylpropyl]thiophene-2-sulfonamide]"
–,> 15000,> 15000,–,–,–,–,"O=S(=O)(N[C@@H](CO)[C@@H](c1ccccc1)C(F)(F)F)c1ccc(Cl)s1 (stereo in doubt) [Example 2, 5-Chloro-N-[(1R* ,2R*)-3,3,3-trifluoro-1-(hydroxymethyl)-2-phenylpropyl]thiophene-2-sulfonamide]"
